Entries after “also recorded” stand apart in the source; their conditions may differ.
Tests used:
Gram-negative pathogens = experiment: Checkerboard microdilution assays between polymyxin B and novobiocin (FIG. 1A-1F); format: cell-based; settings: six strains of FIG. 1A-1F, 37° C. for 24 h
Method: Checkerboard data are representative of at least three biological replicates.
Checkerboard microdilution assays between polymyxin B and novobiocin were performed in wild-type strains (unless otherwise noted) grown at 37° C. for 24 h. Checkerboard data (FIG. 1A-1F) are representative of at least three biological replicates. The following strains were tested: A) Wild-type Escherichia coli, ATCC 25922; B) Wild-type Enterobacter cloacae; ATCC 13047) Wild-type Klebsiella pneumoniae, ATCC 700721; D) Wild-type Pseudomonas aeruginosa, ATCC 15692 (PAO1); E) Wild-type Acinetobacter baumannii, ATCC 19606; F) novobiocin-resistant Acinetobacter baumannii, ATCC 19606 gyrB(R150C).

[1] = system: novobiocin-resistant A. baumannii 19606 gyrB(R150C) point mutant (Novo^R); format: cell-based
[2] = target: T1, LptB2LptFG(ch)C complexes (Escherichia coli, UniProt P0A9V1); experiment: LPS-release assay, right-side-out vesicles to LptA*; format: biochemical, E. coli; settings: 30° C. (FIG. 9C)
T1 construct: made in house; host or cells: right-side-out membrane vesicles from E. coli BL-21(λDE3) overexpressing the complex
Method: (§1) FIG. 9A is a schematic drawing showing the assay to monitor LPS release from right-side-out vesicles to LptA* (LptA(I36pBPA)). Vesicles containing overexpressed wild-type or mutant LptB2FGC complexes were incubated with LptA* and ATP at 30° C. to initiate LPS extraction and transport from the vesicles to LptA*. Samples were taken at different time points and UV-irradiated to crosslink LPS to LptA*, and accumulation of LPS-LptA* adducts was detected using LPS immunoblots.
(§2) The assay detects via immunoblot LPS that becomes crosslinked to LptA* in the presence of UV light. […] By comparison, vesicles containing LptB2LptFG(ch)C complexes released less LPS over time (FIG. 9B, lanes 5-8). These experiments provide direct evidence that the amino acid changes in LptFG(ch), which were known to affect complex formation with LptB, impair LPS release. […] These compounds also increase LPS release from vesicles containing wild-type LptB2FGC complexes or LptB(R91 S)2FGC complexes (FIG. 17).
The in vitro LPS-transport experiments in FIGS. 9B, 9C, and 17 were set-up as described in (Okuda et al. Science 2012, 338, 1214-1217) with some modifications. […]
(§3) Immunoblotting was used to assess LptA*-LPS levels in each sample. […] LptA levels were assessed similarly, using rabbit anti-LptA antiserum followed by donkey anti-rabbit horseradish peroxidase conjugate (GE Amersham). […]

[3] = system: E. coli strain ATCC 25922; experiment: Neutropenic mouse thigh infection efficacy; format: in vivo
Method: Female CD-1 mice from Charles River Laboratories were allowed to acclimate for 5 days prior to start of study. Animals were housed four per cage with free access to food and water. Mice received two doses of cyclophosphamide on days −4 and −1 with 150 mg/kg and 100 mg/kg delivered IP, respectively. All procedures were performed to NeoSome IACUC policies and guidelines as well as OLAW standards.
E. coli strain ATCC 25922 was prepared for infection from an overnight plate culture. A portion of the plate was resuspended in sterile saline and adjusted to an OD of 0.15 at 625 nm. The adjusted bacterial suspension was further diluted to target an infecting inoculum of 1.5×10^5 CFU/mouse, the actual inoculum size for E. coli was 1.45×10^5 CFU/mouse. Plate counts of the inoculum was performed to confirm inoculum concentration.
Mice were inoculated with 100 μL of the prepared bacterial suspension via intramuscular injection into the right rear thigh.
Beginning at two hours post infection, mice were dosed with test agents subcutaneously at 10 mL/kg. A second dose of test agents was delivered at 6 hours post infection. For co-administered therapy, test agents were delivered separately at two different injection sites. Four animals were dosed per group. One group of four mice were euthanized at initiation of therapy (T=2 h) and CFUs determined. All remaining mice were euthanized at 26 hours post infection. At termination, thighs were aseptically excised, weighed, and homogenized to a uniform consistency in 2 mL of sterile saline. The homogenate was serially diluted and plated on bacterial growth media. The CFUs were enumerated after overnight incubation. The average and standard deviations for each group were determined.
Neutropenic mice infected with E. coli were treated with novobiocin, polymyxin B, or a combination of the two for the evaluation of efficacy is a thigh infection model.

[4] = system: A. baumannii (ATCC: 19606) mutant that is novobiocin and polymyxin-resistant; experiment: Checkerboard microdilution assay, polymyxin-resistant strain; format: cell-based; settings: 37° C. for 24 h
Method: (§4) The effect of novobiocin/polymyxin combination was further assessed in polymyxin-resistant strains using checkerboard microdilution assays. In these assays, polymyxin-resistant strains (E. coli (clinical isolate from Brigham and Women's Hospital); A. baumannii (ATCC: 19606) mutant that is novobiocin and polymyxin-resistant; and K. pneumoniae (clinical isolate from Brigham and Women's Hospital)) were grown at 37° C. for 24 h.

[5] = system: polymyxin-resistant K. pneumoniae (clinical isolate from Brigham and Women's Hospital); format: cell-based; settings: 37° C. for 24 h
Method: as §4

wild-type A. baumannii = experiment: Checkerboard microdilution assay with PMB, PMBN, novobiocin, novobiocin aglycone; format: cell-based
[6] = target: T2, wild-type LptB2FGC complexes (Escherichia coli, UniProt P0A9V1); experiment: LPS-release assay, right-side-out vesicles to LptA*; format: biochemical, E. coli
T2 construct: made in house; host or cells: right-side-out membrane vesicles from E. coli BL-21(λDE3) overexpressing the complex
Method: as §1
FIG. 9D is a picture of an immunoblot showing that novobiocin and derivatives with impaired gyrase activities stimulate LPS transport in E. coli in vitro. […] Samples were UV irradiated at 365 nm for 5 minutes and then quenched with 2X SDS/5% β-mercaptoethanol. Samples were immunoblotted.
as §2
Samples were UV irradiated at 365 nm for 5 minutes and then quenched with 2X SDS/5% β-mercaptoethanol. Samples were immunoblotted.
The in vitro LPS-transport experiments in FIGS. 9B, 9C, and 17 were set-up as described in (Okuda et al. Science 2012, 338, 1214-1217) with some modifications. RSO-vesicles (50 μg total protein) were diluted into 100 μL reaction buffer (10% v/v glycerol, 20 mM Tris (pH 8.0), 150 mM NaCl, 5 mM sodium-ATP, 5 mM MgCl2), and incubated on ice with novobiocin, 1-adamantyl-novobiocin, or no compound for 15 minutes (50× compound stocks in water were used for each concentration). […]
as §3

[7] = system: polymyxin-resistant E. coli (clinical isolate from Brigham and Women's Hospital); format: cell-based; settings: 37° C. for 24 h
Method: as §4

[8] = Novobiocin 200 mg/kg (total 400) BID/SC

T2 sequence (P0AF98 whole entry): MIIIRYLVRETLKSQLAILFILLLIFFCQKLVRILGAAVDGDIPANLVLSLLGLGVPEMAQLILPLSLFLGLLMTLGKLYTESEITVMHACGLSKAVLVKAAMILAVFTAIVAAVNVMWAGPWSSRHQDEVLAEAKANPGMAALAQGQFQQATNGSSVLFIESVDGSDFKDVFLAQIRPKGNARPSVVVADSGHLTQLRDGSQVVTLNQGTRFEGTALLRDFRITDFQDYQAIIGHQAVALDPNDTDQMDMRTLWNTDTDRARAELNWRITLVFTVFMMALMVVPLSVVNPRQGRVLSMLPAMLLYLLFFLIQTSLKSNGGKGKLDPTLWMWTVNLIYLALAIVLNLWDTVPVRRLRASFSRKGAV
T2 sequence (P0ADV9 whole entry, further chain): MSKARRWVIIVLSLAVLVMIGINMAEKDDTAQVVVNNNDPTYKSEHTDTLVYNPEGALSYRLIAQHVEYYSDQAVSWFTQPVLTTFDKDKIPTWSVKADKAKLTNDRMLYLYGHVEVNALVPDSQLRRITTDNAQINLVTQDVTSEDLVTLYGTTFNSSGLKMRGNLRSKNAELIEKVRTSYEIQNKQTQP
T2 sequence (P0ADC6 whole entry, further chain): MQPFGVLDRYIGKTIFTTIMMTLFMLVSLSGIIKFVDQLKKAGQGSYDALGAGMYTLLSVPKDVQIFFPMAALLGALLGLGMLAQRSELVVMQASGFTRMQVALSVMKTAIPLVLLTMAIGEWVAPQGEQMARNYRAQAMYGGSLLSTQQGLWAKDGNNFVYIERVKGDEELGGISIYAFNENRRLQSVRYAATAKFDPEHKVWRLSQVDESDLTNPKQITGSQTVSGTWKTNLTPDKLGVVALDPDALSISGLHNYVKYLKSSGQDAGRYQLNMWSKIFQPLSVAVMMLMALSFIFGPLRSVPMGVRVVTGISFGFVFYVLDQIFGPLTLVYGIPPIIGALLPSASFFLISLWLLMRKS
T2 sequence (P0A9V1 2-241): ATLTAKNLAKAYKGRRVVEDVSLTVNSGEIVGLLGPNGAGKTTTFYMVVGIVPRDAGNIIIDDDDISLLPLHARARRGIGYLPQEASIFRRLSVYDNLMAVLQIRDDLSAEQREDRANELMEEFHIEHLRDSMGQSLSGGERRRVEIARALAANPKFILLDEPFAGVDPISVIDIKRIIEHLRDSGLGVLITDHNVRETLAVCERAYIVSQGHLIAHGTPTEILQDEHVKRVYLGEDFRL
T1 sequence (P0AF98 whole entry E84A): as the sequence (P0AF98 whole entry) above, with E84A counted along it
T1 sequence (P0ADC6 whole entry E88A, further chain): as the sequence (P0ADC6 whole entry, further chain) above, with E88A counted along it
T1 sequence (P0A9V1 2-241): as the sequence (P0A9V1 2-241) above
T1 sequence (P0ADV9 whole entry, further chain): as the sequence (P0ADV9 whole entry, further chain) above

CO[C@@H]1[C@@H](OC(N)=O)[C@@H](O)[C@H](Oc2ccc3c(O)c(NC(=O)c4ccc(O)c(CC=C(C)C)c4)c(=O)oc3c2C)OC1(C)C [Novobiocin, novobiocin]
synergy with polymyxin B (Gram-negative pathogens): synergizes with polymyxin B to kill Gram-negative pathogens in vitro | synergy with PMBN ([1]; Novo^R A. baumannii): resistant to the same combination; also recorded: same synergy but at higher [novobiocin] | resistance of gyrB(R150C) point mutant towards novobiocin ([1]; relative to wild type): 300 fold | LPS release from vesicles to LptA* [2]: stimulate LPS release from the LptB2LptFG(ch)C vesicles in a concentration dependent manner | change in log10 CFU/g of thigh from 2 hour control [3, 8]: 3.58 log10 CFU/g of thigh | change in log10 CFU/g of thigh from 26 hour controls [3, 8]: −0.51 log10 CFU/g of thigh | activity against this isolate ([3]; Novobiocin delivered at 200 mg/kg): did not demonstrate significant activity | Average log10 CFU/g of thigh ([3]; neutropenic CD-1 mice, Novobiocin 200 mg/kg (total 400) BID/SC, 26 hours post infection): 9.12 log10 CFU/g of thigh | synergy with polymyxin B [4]: synergizes with polymyxin B | synergy with polymyxin B [5]: synergizes with polymyxin B | synergy with PMBN (wild-type A. baumannii): exhibits synergy | LPS transport in vitro ([6]; overexpressed LptB2FGC vesicles, 30° C. for 1 hour (FIG. 9D, 9E)): stimulate LPS transport in vitro | LPS release from vesicles to LptA* ([6]; wild-type LptB2FGC or LptB(R91 S)2FGC vesicles (FIG. 17)): stimulates LPS release | synergy with polymyxin B [7]: synergizes with polymyxin B

Source: patent publication US11191773B2, “Methods of treatment for bacterial infections” (President and Fellows of Harvard College, priority 2017, dated 2021)
